In the assay the target is T1, mAChR hM4 (Homo sapiens, UniProt P08173).
T1 construct: expressed in transfected cells; host or cells: CHO-K1 (Chinese hamster ovary) cells
T1 sequence (P08173 1-479): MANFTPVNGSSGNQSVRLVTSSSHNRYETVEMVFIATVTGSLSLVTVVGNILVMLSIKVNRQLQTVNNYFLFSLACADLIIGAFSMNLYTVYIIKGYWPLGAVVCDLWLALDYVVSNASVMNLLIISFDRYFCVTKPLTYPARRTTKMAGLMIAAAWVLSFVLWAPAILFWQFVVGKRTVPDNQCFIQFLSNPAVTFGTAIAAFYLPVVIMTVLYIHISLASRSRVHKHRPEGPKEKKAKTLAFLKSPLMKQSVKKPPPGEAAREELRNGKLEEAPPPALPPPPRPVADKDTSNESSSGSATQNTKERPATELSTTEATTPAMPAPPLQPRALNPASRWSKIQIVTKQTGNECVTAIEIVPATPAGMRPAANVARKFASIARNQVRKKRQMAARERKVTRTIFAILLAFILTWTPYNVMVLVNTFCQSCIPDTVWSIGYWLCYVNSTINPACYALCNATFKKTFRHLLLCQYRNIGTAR
The assay can be described thus: mAChR M4 cell-based functional assay (calcium flux, potentiation of EC20 acetylcholine response). The note with it: mAChR hM4 cell-line; for EC50: >10,000 estimated for low potency compounds lacking a plateau. From the text: In one aspect, the disclosed compounds potentiate the agonist response (e.g., acetylcholine) of mAChR M4. In a further aspect, the disclosed compounds increase mAChR M4 response to non-maximal concentrations of agonist in the presence of compound compared to the response to agonist in the absence of compound. […] For example, activation of mAChR M4 activity can be determined by measurement of calcium flux in response to agonist, e.g. acetylcholine, in cells loaded with a Ca^2+-sensitive fluorescent dye (e.g., Fluo-4). In a further aspect, the calcium flux was measured as an increase in fluorescent static ratio. In a yet further aspect, positive allosteric modulator activity was analyzed as a concentration-dependent increase in the EC20 acetylcholine response (i.e. the response of mAChR M4 at a concentration of acetylcholine that yields 20% of the maximal response).
In one aspect, the disclosed compounds activate mAChR M4 response as an increase in calcium fluorescence in mAChR M4-transfected CHO-K1 cells in the presence of the compound, compared to the response of equivalent CHO-K1 cells in the absence of the compound. […] In a further aspect, the mAChR M4-transfected CHO-K1 cells are transfected with human mAChR M4. In a still further aspect, the mAChR M4-transfected CHO-K1 cells are transfected with rat mAChR M4.
Substituted 3-aminothieno[2,3-c]pyridine-2-carboxamide analogs were synthesized as described above. Activity (EC50 and Emax) was determined in the mAChR M4 cell-based functional assay as described above, and the data are shown in Table II for assays conducted using mAChR hM4 cell-line. The compound number corresponds to the compound numbers used in Table I.

Structures are written as SMILES. Bounds are passed on as bounds.

What is called EC50 is the concentration at which the effect is half-maximal. On to `Cc1cc(C)c2c(-c3cnn(C)c3)c(C(=O)NCc3ccc(S(C)(=O)=O)cc3)sc2n1` [Compound 36, 4,6-dimethyl-3-(1-methyl-1H-pyrazol-4-yl)-N-(4-(methylsulfonyl)benzyl)thieno[2,3-b]pyridine-2-carboxamide], for which the concentration for a half-maximal effect (EC50) is more than 10000 nM.
Same read-out and setting: under `Cc1cc(C)c2c(Br)c(C(=O)N(C)Cc3ccc(S(C)(=O)=O)cc3)sc2n1` [Compound 37, 3-bromo-N,4,6-trimethyl-N-(4-(methylsulfonyl)benzyl)thieno[2,3-b]pyridine-2-carboxamide] stands more than 10000 nM.
For orientation: Emax means the greatest response seen or fitted, relative to the assay's reference. Turning to `CCc1c(C(=O)NCc2ccc(S(C)(=O)=O)cc2)sc2nc(C)cc(C)c12` [Compound 38, 3-ethyl-4,6-dimethyl-N-(4-(methylsulfonyl)benzyl)thieno[2,3-b]pyridine-2-carboxamide], the EC50 is 4100 nM. The Emax at 30 µM (% ACh maximum at 30 μM) was 67%.
Turning to `Cc1nc2sc(C(=O)NCc3ccc4c(c3)OCCO4)c(Br)c2c(C)c1Cl` [Compound 39, 3-bromo-5-chloro-N-((2,3-dihydrobenzo[b][1,4]dioxin-6-yl)methyl)-4,6-dimethylthieno[2,3-b]pyridine-2-carboxamide], the EC50 was more than 10000 nM.
The same measure, in the same setting: under `COc1ccc(C(C)NC(=O)c2sc3nc(C)c(Cl)c(C)c3c2Br)cc1` (centres unmarked) [Compound 40, 3-bromo-5-chloro-N-(1-(4-methoxyphenyl)ethyl)-4,6-dimethylthieno[2,3-b]pyridine-2-carboxamide] stands more than 10000 nM.
Regarding `Cc1nc2sc(C(=O)NC3COC3)c(Br)c2c(C)c1Cl` [Compound 41, 3-bromo-5-chloro-4,6-dimethyl-N-(oxetan-3-yl)thieno[2,3-b]pyridine-2-carboxamide], the EC50 was 530 nM. For the same compound, the Emax at 30 µM (% ACh maximum at 30 μM) was 84%.
Consider `Cc1nc2sc(C(=O)NCC3CC3)c(Br)c2c(C)c1Cl` [Compound 42, 3-bromo-5-chloro-N-(cyclopropylmethyl)-4,6-dimethylthieno[2,3-b]pyridine-2-carboxamide], for which the EC50 is more than 10000 nM.
With `COc1ccc(CN(C)C(=O)c2sc3nc(C)c(Cl)c(C)c3c2Br)cc1` [Compound 43, 3-bromo-5-chloro-N-(4-methoxybenzyl)-N,4,6-trimethylthieno[2,3-b]pyridine-2-carboxamide], the EC50 is more than 10000 nM.
As for `Cc1nc2sc(C(=O)NC3CCOC3)c(Br)c2c(C)c1Cl` (centres unmarked) [Compound 44, 3-bromo-5-chloro-4,6-dimethyl-N-(tetrahydrofuran-3-yl)thieno[2,3-b]pyridine-2-carboxamide], the EC50 is 590 nM. Besides, the Emax at 30 µM (% ACh maximum at 30 μM) is 54%.
Take `Cc1nc2sc(C(=O)NCc3ccc(S(C)(=O)=O)cc3)c(Br)c2c(C)c1Cl` [Compound 45, 3-bromo-5-chloro-4,6-dimethyl-N-(4-(methylsulfonyl)benzyl)thieno[2,3-b]pyridine-2-carboxamide]: the EC50 is more than 10000 nM.
The same measure, in the same setting: under `Cc1nc2sc(C(=O)NCc3ccc4c(c3)CCO4)c(Br)c2c(C)c1Cl` [Compound 46, 3-bromo-5-chloro-N-((2,3-dihydrobenzofuran-5-yl)methyl)-4,6-dimethylthieno[2,3-b]pyridine-2-carboxamide] stands more than 10000 nM; under `COc1ccc(CNC(=O)c2sc3nc(C)c(Cl)c(C)c3c2Br)cc1` [Compound 47, 3-bromo-5-chloro-N-(4-methoxybenzyl)-4,6-dimethylthieno[2,3-b]pyridine-2-carboxamide], more than 10000 nM.
With `Cc1nc2sc(C(=O)NC3(C)COC3)c(Br)c2c(C)c1Cl` [Compound 48, 3-bromo-5-chloro-4,6-dimethyl-N-(3-methyloxetan-3-yl)thieno[2,3-b]pyridine-2-carboxamide], the EC50 is 570 nM. Moreover, the Emax at 30 µM (% ACh maximum at 30 μM) was found to be 54%.
On the same counts, the results for `Cc1nc2sc(C(=O)NC3CC3)c(Br)c2c(C)c1Cl` [Compound 49, 3-bromo-5-chloro-N-cyclopropyl-4,6-dimethylthieno[2,3-b]pyridine-2-carboxamide] are 770 nM and 62%.
Taken in the same sequence, the figures for `Cc1nc2sc(C(=O)NCC(C)(C)O)c(C3CC3)c2c(C)c1Cl` [Compound 50, 5-chloro-3-cyclopropyl-N-(2-hydroxy-2-methylpropyl)-4,6-dimethylthieno[2,3-b]pyridine-2-carboxamide] were more than 10000 nM and 43%.
In the case of `Cc1nc2sc(C(=O)NC3CCS(=O)(=O)C3)c(C3CC3)c2c(C)c1Cl` (centres unmarked) [Compound 51, 5-chloro-3-cyclopropyl-N-(1,1-dioxidotetrahydrothiophen-3-yl)-4,6-dimethylthieno[2,3-b]pyridine-2-carboxamide], the EC50 is more than 10000 nM.
For `Cc1nc2sc(C(=O)NC3CCOC3)c(C3CC3)c2c(C)c1Cl` (centres unmarked) [Compound 52, 5-chloro-3-cyclopropyl-4,6-dimethyl-N-(tetrahydrofuran-3-yl)thieno[2,3-b]pyridine-2-carboxamide], the EC50 is 1600 nM. The Emax at 30 µM (% ACh maximum at 30 μM) was 60%.
On to `COc1ccc(CNC(=O)c2sc3nc(C)c(Cl)c(C)c3c2C2CC2)cc1` [Compound 53, 5-chloro-3-cyclopropyl-N-(4-methoxybenzyl)-4,6-dimethylthieno[2,3-b]pyridine-2-carboxamide], for which the EC50 is more than 10000 nM.
Consider `Cc1nc2sc(C(=O)NC3CC3)c(C3CC3)c2c(C)c1Cl` [Compound 54, 5-chloro-N,3-dicyclopropyl-4,6-dimethylthieno[2,3-b]pyridine-2-carboxamide], for which the EC50 was 430 nM. Besides, the Emax at 30 µM (% ACh maximum at 30 μM) was determined as 50%.
Taken in the same sequence, the figures for `Cc1nc2sc(C(=O)NC3COC3)c(C3CC3)c2c(C)c1Cl` [Compound 55, 5-chloro-3-cyclopropyl-4,6-dimethyl-N-(oxetan-3-yl)thieno[2,3-b]pyridine-2-carboxamide] were 860 nM and 85%.
On the same counts, the results for `Cc1nc2sc(C(=O)NC3(C)COC3)c(C3CC3)c2c(C)c1Cl` [Compound 56, 5-chloro-3-cyclopropyl-4,6-dimethyl-N-(3-methyloxetan-3-yl)thieno[2,3-b]pyridine-2-carboxamide] are 1400 nM and 38%.
Taken in the same sequence, the figures for `Cc1nc2sc(C(=O)NC3CCOC3)c(C)c2c(C)c1Cl` (centres unmarked) [Compound 57, 5-chloro-3,4,6-trimethyl-N-(tetrahydrofuran-3-yl)thieno[2,3-b]pyridine-2-carboxamide] were 1200 nM and 79%.
`Cc1nc2sc(C(=O)NC3CCN(C)CC3)c(C)c2c(C)c1Cl` [Compound 58, 5-chloro-3,4,6-trimethyl-N-(1-methylpiperidin-4-yl)thieno[2,3-b]pyridine-2-carboxamide]: the EC50 was more than 10000 nM.
On to `Cc1nc2sc(C(=O)NC3CCS(=O)(=O)C3)c(C)c2c(C)c1Cl` (centres unmarked) [Compound 59, 5-chloro-N-(1,1-dioxidotetrahydrothiophen-3-yl)-3,4,6-trimethylthieno[2,3-b]pyridine-2-carboxamide], for which the EC50 was 950 nM. Also, the Emax at 30 µM (% ACh maximum at 30 μM) was determined as 45%.
`Cc1nc2sc(C(=O)NC3CC3)c(C)c2c(C)c1Cl` [Compound 60, 5-chloro-N-cyclopropyl-3,4,6-trimethylthieno[2,3-b]pyridine-2-carboxamide]: the EC50 is 380 nM. Also, for the setting “% ACh maximum at 30 μM”, the Emax at 30 µM came out at 79%.
Take `Cc1nc2sc(C(=O)NC3COC3)c(Br)c2c(C)c1Cl` [Compound 61, 3-bromo-5-chloro-4,6-dimethyl-N-(oxetan-3-yl)thieno[2,3-b]pyridine-2-carboxamide]: the EC50 is 360 nM. Further, the “Emax (%)” value (% ACh maximum at 30 μM) was found to be 70%.
`Cc1nc2sc(C(=O)NC3COC3)c(-c3ccccc3)c2c(C)c1Cl` [Compound 62, 5-chloro-4,6-dimethyl-N-(oxetan-3-yl)-3-phenylthieno[2,3-b]pyridine-2-carboxamide]: the EC50 was more than 10000 nM.
With `Cc1nc2sc(C(=O)NC3COC3)c(C)c2c(C)c1Cl` [Compound 63, 5-chloro-3,4,6-trimethyl-N-(oxetan-3-yl)thieno[2,3-b]pyridine-2-carboxamide], the EC50 is 410 nM. For the same compound, the Emax at 30 µM (% ACh maximum at 30 μM) was 76%.
As for `Cc1nc2sc(C(=O)N3CCC(c4ccccc4)C3)c(C3CC3)c2c(C)c1Cl` (centres unmarked) [Compound 64, (5-chloro-3-cyclopropyl-4,6-dimethylthieno[2,3-b]pyridin-2-yl)(3-phenylpyrrolidin-1-yl)methanone], the EC50 was more than 10000 nM.

The values are drawn from patent publication US20160200733A1, “SUBSTITUTED THIENO[2,3-B]PYRIDINE-2-CARBOXAMIDE ANALOGS AS POSITIVE ALLOSTERIC MODULATORS OF THE MUSCARINIC ACETYLCHOLINE RECEPTOR M4” (Vanderbilt University, priority 2013, published 2016).
